From US5672585A, “Method and composition for treating thrombosis” (priority 1995, dated 1997)
pIC50: −log10 of the molar value.

What was measured:
platelets [1] = assay: Ex vivo platelet aggregation in dogs (Example XII H); settings: dog, 10 μg/mL collagen as agonist
Procedure: More importantly, several peptides in FIG. 23 were administered to dogs (according to the method of Example VII) at doses capable of inhibiting ex vivo platelet aggregation by >95%.
The bleeding time indicated in the parentheses was measured at a five-fold higher concentration of peptide. […]

GP IIb/IIIa = GP IIb/IIIa (Homo sapiens, UniProt P05106+P08514); assay: Inhibition of ligand binding to GP IIb/IIIa; settings: fibrinogen versus fibronectin and vitronectin
GP IIb/IIIa, sequence (P08514 32-887 limits assumed): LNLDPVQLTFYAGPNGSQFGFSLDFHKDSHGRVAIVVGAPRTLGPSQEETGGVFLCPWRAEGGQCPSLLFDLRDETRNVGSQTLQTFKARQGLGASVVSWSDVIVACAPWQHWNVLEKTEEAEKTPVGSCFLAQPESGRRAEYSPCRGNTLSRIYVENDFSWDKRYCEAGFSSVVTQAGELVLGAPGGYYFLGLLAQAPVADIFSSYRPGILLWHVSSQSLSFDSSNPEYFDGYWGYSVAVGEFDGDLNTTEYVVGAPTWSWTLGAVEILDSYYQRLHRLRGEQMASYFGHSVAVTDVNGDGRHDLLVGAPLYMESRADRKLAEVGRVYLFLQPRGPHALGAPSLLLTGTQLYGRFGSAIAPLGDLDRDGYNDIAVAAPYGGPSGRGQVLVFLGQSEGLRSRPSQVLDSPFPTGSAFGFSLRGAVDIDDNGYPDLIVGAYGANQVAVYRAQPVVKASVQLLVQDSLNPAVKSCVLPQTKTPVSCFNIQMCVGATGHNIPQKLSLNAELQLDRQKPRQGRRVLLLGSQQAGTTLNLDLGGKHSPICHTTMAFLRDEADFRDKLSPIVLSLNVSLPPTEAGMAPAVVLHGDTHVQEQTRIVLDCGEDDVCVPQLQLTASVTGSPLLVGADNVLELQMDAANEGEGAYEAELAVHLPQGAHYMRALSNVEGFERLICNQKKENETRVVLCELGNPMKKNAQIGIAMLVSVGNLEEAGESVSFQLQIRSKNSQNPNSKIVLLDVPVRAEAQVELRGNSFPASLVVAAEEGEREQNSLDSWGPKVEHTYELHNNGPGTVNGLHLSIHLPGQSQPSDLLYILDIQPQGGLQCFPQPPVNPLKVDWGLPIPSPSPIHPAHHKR
GP IIb/IIIa, sequence (P08514 891-1039 partner limits assumed): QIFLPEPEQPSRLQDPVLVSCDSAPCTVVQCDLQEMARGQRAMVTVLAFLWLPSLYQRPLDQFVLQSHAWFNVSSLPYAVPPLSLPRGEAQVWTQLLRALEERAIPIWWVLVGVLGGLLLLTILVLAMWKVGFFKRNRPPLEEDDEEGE
GP IIb/IIIa, sequence (P05106 27-788): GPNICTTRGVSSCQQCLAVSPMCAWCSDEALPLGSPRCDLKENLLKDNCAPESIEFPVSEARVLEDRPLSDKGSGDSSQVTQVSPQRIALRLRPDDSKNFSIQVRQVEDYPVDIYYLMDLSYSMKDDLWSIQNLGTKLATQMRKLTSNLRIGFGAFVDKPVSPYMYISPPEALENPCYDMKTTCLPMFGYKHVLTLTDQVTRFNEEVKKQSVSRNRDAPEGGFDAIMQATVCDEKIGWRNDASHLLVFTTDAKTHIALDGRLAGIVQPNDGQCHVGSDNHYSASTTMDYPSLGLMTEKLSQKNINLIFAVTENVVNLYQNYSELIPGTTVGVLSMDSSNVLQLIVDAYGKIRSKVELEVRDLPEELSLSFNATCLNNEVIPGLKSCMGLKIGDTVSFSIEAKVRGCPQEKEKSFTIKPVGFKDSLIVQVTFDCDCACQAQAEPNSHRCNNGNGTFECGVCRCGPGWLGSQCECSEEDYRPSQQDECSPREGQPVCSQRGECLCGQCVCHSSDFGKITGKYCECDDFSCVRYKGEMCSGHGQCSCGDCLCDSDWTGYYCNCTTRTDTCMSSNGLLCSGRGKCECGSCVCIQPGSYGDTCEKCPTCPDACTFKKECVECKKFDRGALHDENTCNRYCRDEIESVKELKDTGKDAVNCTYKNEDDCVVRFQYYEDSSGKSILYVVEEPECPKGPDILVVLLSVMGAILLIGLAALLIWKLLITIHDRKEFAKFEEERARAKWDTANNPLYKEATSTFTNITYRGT

platelets [2] = assay: Platelet aggregation on PRP of the peptide-treated baboon; format: in vivo; settings: baboon animal 2, ADP 10 μm, 0, 1 and 2 hours
Procedure: At one- and two-hour time points, template bleeding times were measured, and blood samples were drawn to assess the hematology aggregation studies. Platelet aggregation studies were performed as described in Example V using ADP as the stimulus.
In addition, platelet aggregation studies were conducted on PRP derived from the second animal. Whole blood was drawn at three time points (0, 1 and 2 hours) of both control and experimental shunts.

canine platelets = assay: Canine platelet aggregation in vitro (ADP, arachidonic acid, collagen); format: cell-based, dog; settings: stimulated by 10 μm ADP, […] arachidonic acid or 9.6 micrograms/ml collagen; read-out: IC50 against canine platelet aggregation
coronary thrombosis = assay: Electrically induced canine coronary thrombosis, time to full occlusion; format: in vivo; settings: dog
Procedure: Male mongrel dogs weighing 14 to 20 kg were selected based on proper aggregation of their platelets in response to arachidonic acid, collagen, and adenosine disphosphate (ADP) and based on similar weights and hemodynamic properties.
Before surgery, the animals were anesthetized with sodium pentobarbital (30 mg/kg, i.v.) and then intubated and ventilated on room air with positive pressure using a respirator (Harvard Apparatus, S. Natick, Mass.) at a volume of 30 ml/kg and a frequency of 12 breaths/min. Surgery, performed under aseptic conditions, was begun with the placement of cannulae into the left carotid artery and jugular vein for monitoring arterial blood pressure (Statham P23 pressure transducer, Gould, Inc., Cardiovascular Products, Oxnard, CA) and administering intravenous fluids.
The heart was exposed via a left thoracotomy through the 5th intercostal space. A 2-cm segment of the left circumflex coronary artery (LCCA) was isolated from surrounding tissue by blunt dissection. […] The intra-coronary electrode was constructed by attaching a 25-gauge hypodermic needle tip to a 30-gauge Teflon-insulated silver-coated copper wire. The mechanical occluder was constructed of stainless steel in a C shape with a Teflon screw (2 mm diameter) on top. It was adjusted to control vessel circumference and decrease the reactive hyperemic flow due to a 10-sec (full) occlusion by 50-70% without affecting basal coronary blood flow (FIG. 1C). A monopolar epicardial electrode was sutured to the surface of the ventricle in the region of LCCA distribution to monitor ischemic changes in the electrocardiogram (ECG). The left atrium was cannulated with polythylene tubing for administration of the peptide. Continuous recordings of blood pressure, limb lead II ECG, epicardial electrogram, and mean and phasic LCCA blood flow were obtained on a Model 7 polygraph (Grass Instrument Co., Quincy, Mass.).
One hour after the completion of surgery, a 100 micro-amp continuous anodal direct current delivered from a 9 volt nickel-cadmium battery was applied to the intimal surface of the LCCA. The anode of the battery was in series with a 250,000 ohm potentiometer and the intraluminal coronary artery electrode. The electric circuit was completed by placing the cathode in a subcutaneous site. Electrical stimulation was applied for three hours. At the conclusion of each experiment, the heart was fibrillated electrically and quickly removed, and the LCCA was dissected free as far as possible to verify the position of the implanted anodal electrode.
(§1) Animals were randomly assigned to two treatment groups: vehicle control (i.e., normal saline) or RGD peptides at various concentrations. Peptides were administered intra-atrially in both bolus and continuous injections. Each bolus injection consisted of 0.5 to 10 mg/kg and was administered 15 minutes before application of the current. A continuous infusion of the same peptide was then started immediately after completion of this initial injection. Animals received a 25 μg/kg/min to 200 μg/kg/min infusion. The anti-thrombotic effects of the peptides were monitored until 30 minutes after the occurrence of a persistent, occlusive thrombus or five hours after the initiation of electrical stimulation (whichever resulted first). If an occlusive thrombus had not developed within four hours after the initiation of current, the peptide infusion was stopped.
Coronary thrombosis was quantified as the time to full occlusion. The effects of the various peptide treatments on coronary thrombosis is illustrated in FIG. 4.

platelets [3] = assay: Ex vivo platelet aggregation in the canine coronary thrombosis study; settings: dog
Procedure: For all ex vivo studies (see FIGS. 3A, 3B1, 3B2, 3B3, 3C1 and 3C2), control aggregation values were standardized to the percentages of light transmission observed in PRP and PPP samples (0% and 100%, respectively).
as §1
Platelet counts and ex vivo aggregation studies were performed one hour before and 1, 3, and 5 hours after application of anodal direct current.
Platelet aggregation was also determined ex vivo at one, three, and five hours after current application. For these studies, arachidonic acid, or collagen was again used to stimulate the platelets.

[4] = tested on: Gore-tex vascular graft thrombosis; assay: Platelet and fibrinogen uptake by Gore-Tex grafts, baboon ex vivo shunt; format: in vivo
Procedure: Adult male baboons (weighing 16 to 25 kg) were used in these studies. These were sedated with ketamine hydrochloride (200 to 250 mg intramuscular injection) and maintained under anesthesia with sodium pentobarbital (50 to 75 mg administered intravenously as necessary).
Twenty-four hours before the ex vivo shunt was established, platelets were isolated from 500 ml of blood from the test animal and labelled with ca. 500 microcuries of indium-111 oxine (Medi+Physics, Emeryville, Calif.), which irreversibly and specifically binds to platelets with an efficiency of 50%. Immediately after labelling, these platelets were then injected back into the animal and allowed to circulate for 24 hours. Immediately before the start of the study, fibrinogen that had been isolated from the animal and labelled with iodine-131 (DuPont Nuclear, Boston, Mass.) was also injected back into the animal. Also at this time, baseline determinations of the clotting and template bleeding times were made, and blood samples were drawn for hematology studies.
To establish the ex vivo shunt, the femoral artery and vein were percutaneously cannulated with introducer catheters (KMA Inc., Mansfield, Mass.). The catheters were then connected to medical-grade, heparin-coatedsilastic tubing (2.59 mm internal diameter, (Extracorporeal Medical Specialties, Inc., King of Prussia, Pa.). […] Finally, a 5 cm-long test segment of a 4 mm (internal diameter) vascular graft was inserted at the apex of the circuit. The graft used in these studies was Gore-tex (expanded polytetrafluoroethylene, (W. L. Gore and Associates, Inc., Flagstaff, Az). An electromagnetic flow probe was then inserted into the tubing circuit to measure blood flow, which was maintained at 100 ml/min. by varying the resistance imported by a partially occluding screw clamp that was distal to the probe. Finally, a 5 cm-long test segment of a 4 mm (internal diameter) vascular graft was inserted at the apex of the circuit. The graft used in these studies was Gore-tex (expanded polytetrafluoroethylene, W. L. Gore and Associates, Inc., Flagstaff, Ariz.).
Platelet deposition onto the grafts was monitored by dynamic scanning with a gamma camera (Sigma 400, Ohio Nuclear, Inc., Sohon, Ohio), which detects the gamma radiation emitted by the ^111 indium-labelled platelets. Once the circuit was in place, the animal was placed under this camera, and blood flow was initiated. Scans were then taken at the rate of one frame per two minutes for two hours. The data from these scans were collected on a dedicated Digital MDA computer (Maynard, Mass.). […]

[5] = Peripheral blood flow (PBF), laser dopler flow probe, rabbit ear; format: in vivo; settings: time 10 min, bolus dose as listed per peptide
Procedure: Unanesthetized male New Zealand White rabbits (2.5-3.5 kg) were placed in a standard rabbit restrainer. Ears were shaved and a 20G teflon catheter with flowswitch (Viggo) was placed in the medial artery, flushed with saline and locked with 1 ml of heparinized saline ([…]). A 22G catheter (Abbott) fitted with an injection cap (Medex) was placed in the marginal vein of the same ear. Saline or a GP IIb IIIa receptor antagonist, at a concentration of 1 to 3 mg/ml, was infused via the venous catheter. At time 0, 41% of the dose was given as a bolus over 2 minutes. The remainder was continuously infused over the following 60 minutes. Blood samples (3.2 ml) were collected into syringes without needles via the arterial catheter at -10, -5, 10, 45 and 60 minutes. […] The sample was divided into 1.5 ml aliquots and centrifuged at room temperature for 5 seconds at 12,000 G. The resulting platelet rich plasma (PRP) is used to measure ex-vivo platelet aggregation (XPA). […]
In an alternative series of experiments, (Table 2) PBF was measured quantitatively with a laser dopler flow probe (Perimed). The probe was positioned securely over the vascular bed of one ear and flow monitored continuously. Each inhibitor was infused and CBT measured in the opposing ear. No arterial catheter was placed for blood sampling, consequently XPA […] in these animals. […]

platelets [6] = assay: Thrombin-stimulated platelet aggregation (Table I); settings: read-out: Thrombin Stimulated Aggregation; thrombin 2 U/ml, gel-filtered platelets, 37° C.
Procedure: (§2) Briefly, the change in light transmission was measured through a stirred suspension of platelets in an aggregometer (Model 400 VS, Chrono-Log, Hayertown, Pa., USA). […] In studies using thrombin, the PRP was gel-filtered on Sepharose 2B in divalent ion-free Tyrode's solution containing 2% BSA. For all studies, the reference standard was platelet-poor plasma, which was obtained by centrifuging PRP at 1000×g for 5 min.
(§3) All aggregation studies were performed at 37° C. with a constantly stirred suspension of 3×10^8 platelets/ml. (Platelet count was determined with the aid of a hemacytometer.) Peptides and stimulants were added to these suspensions in 1% dilutions. The PRP and gel-filtered platelets were used within three hours from the time of blood collection.
(§4) Peptide anti-aggregation potencies were determined from dose-responsive curves for the inhibition of the maximum aggregation responses stimulated by physiologic doses of ADP (10 μm) and thrombin (2 U/ml).

human platelets = assay: Human platelet aggregation, modified assay (Table II); format: cell-based; settings: human PRP, citrate; aggregating agent collagen, U46619 or ADP
Procedure: In an independent study, a slightly modified aggregation assay was used. Platelet aggregation assays were performed in human platelet rich plasma (PRP). […] The blood was centrifuged at 160×g for 10 minutes at 22° C. and allowed to stand for 5 minutes after which the PRP was decanted. Platelet poor plasma (PPP) was isolated from the remaining blood after centrifugation at 2000×g for 25 minutes. The platelet count of the PRP was diluted to about 300,000 platelets per microliter with PPP.
A 225 μl aliquot of PRP plus 25 μl of either a dilution of the test inhibitor sample or a control (PBS) was incubated for 5 minutes in a Chrono-log Whole Blood Aggregometer at 37° C. An aggregating agent (collagen, 1 μg/ml; U46619, 100 ng/ml; or ADP, 17μM) was added and the transmission was recorded.

platelets [7] = assay: ADP-stimulated platelet aggregation in platelet-rich plasma (Table I); settings: read-out: ADP-Stimulated Aggregation; ADP 10 μm, citrated platelet-rich plasma, 37° C.; * concentrations unconfirmed by amino acid composition analysis
Procedure: as §2, §3, §4

[8] = baboon animal 1, two bolus IV injections of 10 mg/kg
[9] = baboon animal 2, 10 mg/kg bolus IV then 10 mg/kg/hr infusion for two hours

With Ac-CNPRGD(O-Me-Y)RCNH2 [Peptide 8X] the “ex vivo platelet aggregation inhibited” value (platelets [1]) was > 95% and the “differential inhibition of ligand binding to GP IIb/IIIa” value (GP IIb/IIIa) was “inhibits the binding of fibrinogen to GP IIb/IIIa more than it inhibits the binding of fibronectin and vitronectin to the same integrin”.

In the case of G(Pen)GHRGDLRCA [Peptide 2G], the “platelet aggregation in PRP” value (platelets [2]) was “completely unresponsive”, the pIC50 (canine platelets) was 4.52 to 4.82 and the “coronary thrombosis, time to full occlusion” value (from here on “coronary thrombosis, time”) (coronary thrombosis; 10 mg/kg) was “did not significantly influence this frequency”. The “ex vivo ADP-stimulated aggregation” value (platelets [3]; 10 mg/kg injected, 1, 3 and 5 h) was “substantially inhibited”, the “reduction in 111In-platelet uptake by graft” value [4, 8] was 90% and the “reduction in 131I-fibrinogen uptake by graft” value [4, 8] was 79%. For the same substance, the “reduction in labelled fibrinogen uptake by graft” value [4, 9] was 78% and the “reduction in labelled platelet uptake by graft” value [4, 9] was 84%.

In the case of R(Pen)GHRGDWRCR [Peptide 4Q], the “PBF (units)” value [5] was 9 units, the pIC50 (platelets [6]) was 5.92 and the IC50 (human platelets) was 3.3 µM. The pIC50 (canine platelets) was 5.30 to 5.82, the “coronary thrombosis, time” value (coronary thrombosis; 5 mg/kg) was “significantly prolonged the time to occlusion” and the thrombus formation (coronary thrombosis; 5 mg/kg, circulating platelet levels one-third of normal) was “able to prevent thrombus formation”. For the same substance, the “coronary thrombosis, time” value (coronary thrombosis; 10 mg/kg) was “completely prevented occlusion for the full five-hour experimental period”, the pIC50 (platelets [7]) was 5.89 and the “ex vivo platelet activation by collagen” value (platelets [3]; 5 mg/kg injection) was “near-maximal inhibition”. The “ex vivo platelet response to ADP and AA” value (platelets [3]; 5 mg/kg injection, all three time points) was “completely unresponsive”, the “ex vivo platelet aggregation by ADP, AA and collagen” value (platelets [3]; 10 mg/kg injection) was “prevented platelet aggregation by all three stimuli at one- and three-hour time points” and the “ex vivo platelet responsiveness” value (platelets [3]; 10 mg/kg, five-hour point) was “platelet responsiveness was slightly improved”.
